Source: US7981896B2 (Athersys, Inc., priority 2006, dated 2011)
pKi: −log10 of the molar value.

Target: T1, human histamine H3 receptor (Homo sapiens, UniProt Q9Y5N1)
T1 construct: endogenous in cells; host or cells: HT1080-Gqαi5 RAGE clone (RAGE-H3), human fibrosarcoma line; integrated RAGE vector pFG8-HH3 supplies exon 1, the cell's own gene supplies the other exons
Assay: Competition radioligand binding assay with [125I]iodoproxyfan on membranes of RAGE-H3 (HT1080-Gqαi5) cells expressing human H3 receptor
Settings: ~0.15 nM [125I]iodoproxyfan, 1.5 hrs at room temperature, head does not name the quantity (apparent Ki by Cheng-Prussof)
Protocol: Representative compounds of the present invention that were prepared by the procedures of Examples 1-83 were evaluated in binding assays against cells expressing human H3 receptor by the following procedure.
[^125I]iodoproxyfan (2000 Ci/mmol) was obtained from Amersham Bioscience (Piscataway, N.J.). All other chemicals were either from Sigma-Aldrich (St. Louis, Mo.) or Tocris Cookson Inc. (Ellisville, Mo.).
The human histamine H3 receptor was stably expressed in HT1080 cells containing the chimeric G-protein, Gq[…]i5 (Coward et al., Anal Biochem 1999; 270:242-8). HT1080-Gqαi5 cells were grown in alpha-modified MEM containing 10% fetal bovine serum and 7 μg/ml blasticidin at 37° C. in 5% CO2/95% atmosphere. Cells (4.8×10^9) were irradiated with 50 rads from a ^137Cs source and the pFG8-HH3 RAGE (Random Activation of Gene Expression; see Harrington et al., Nature Biotechnology. 2001; 19:440-45) vector was subsequently integrated into the cells via electroporation (250V, 600 μF, 50Ω). The RAGE vector pFG8-HH3 contained cDNA sequence coding for the first exon (83 amino acids) of human H3 receptor. After electroporation, cells were plated in T75 flasks and grown in alpha-modified MEM. The culture medium was replaced 48 hrs after electroporation with alpha-modified MEM, 10% fetal bovine serum, 500 μg/ml hygromycin B and 3 μg/ml puromycin. Medium was replaced every four days during cell expansion. To identify RAGE activated cells expressing the H3 receptor, pools of approximately 10,000 colonies (5×10^7-1.5×10^8 cells total) were screened by PCR for the desired gene product (using primers specific to the RAGE vector and exon 2 of the H3 receptor). […] Positive 100 cells/well pools were identified by PCR, confirmed by sequencing, and subsequently subcloned to 0.8 cells/well. Once clones expressing the H3 receptor were identified by PCR analysis, assays (FLIPR or radioligand binding) were performed to confirm that the activated gene produced functional protein. The protein expression in the initial clones obtained from the RAGE library was increased by growth in the presence of methotrexate. Since the integrated RAGE vector contains the DHFR gene, such treatment selects for cells that have amplified the genetic locus containing the RAGE insert. Subclones obtained after methotrexate amplification were tested for functional activity in FLIPR assays to identify the clone that was most suitable for HTS. The final HT1080-Gqαi5 RAGE clone (RAGE-H3) expressing the human histamine H3 receptor was grown in alpha-modified MEM containing 10% fetal bovine serum, 3 μg/ml puromycin, 500 μg/ml hygromycin B, 3.2 μM methotrexate at 37° C. in 5% CO2/95% atmosphere.
RAGE-H3 cells (10^9) were washed twice with cold PBS, scraped off the plates, and centrifuged at 1000×g for 5 minutes. Cells were resuspended in ice-cold 10 mM Tris HCl, pH 7.4, containing 5 mM EDTA and protease inhibitor cocktail tablets (Roche Molecular Biochemicals). After incubating on ice for 10 min, the cells were homogenized with a dounce homogenizer or a polytron tissue grinder, and centrifuged at 1000×g for 10 min at 4° C. The resulting supernatant was centrifuged at 32,000×g for 30 min at 4° C. The membrane pellets were resuspended in 50 mM Tris HCl, pH 7.4, and stored at −80° C. until use. Protein concentration was determined by the Bradford method (Bio-Rad Laboratories, CA).
Binding assays were carried out in 96-well polypropylene plates in 50 mM Tris HCl, pH 7.4, containing 1 mM EDTA. Reaction mixtures contained 100 μl of membrane suspension, 50 μl of 4% DMSO, and 50 μl of increasing amounts of [^125I]iodoproxyfan (final concentration 0.0005-1.8 nM for human H3 receptor saturation binding assay). Nonspecific binding was defined by adding 10 μM clobenpropit to the reaction mixtures. […]

T1 sequence (Q9Y5N1 whole entry): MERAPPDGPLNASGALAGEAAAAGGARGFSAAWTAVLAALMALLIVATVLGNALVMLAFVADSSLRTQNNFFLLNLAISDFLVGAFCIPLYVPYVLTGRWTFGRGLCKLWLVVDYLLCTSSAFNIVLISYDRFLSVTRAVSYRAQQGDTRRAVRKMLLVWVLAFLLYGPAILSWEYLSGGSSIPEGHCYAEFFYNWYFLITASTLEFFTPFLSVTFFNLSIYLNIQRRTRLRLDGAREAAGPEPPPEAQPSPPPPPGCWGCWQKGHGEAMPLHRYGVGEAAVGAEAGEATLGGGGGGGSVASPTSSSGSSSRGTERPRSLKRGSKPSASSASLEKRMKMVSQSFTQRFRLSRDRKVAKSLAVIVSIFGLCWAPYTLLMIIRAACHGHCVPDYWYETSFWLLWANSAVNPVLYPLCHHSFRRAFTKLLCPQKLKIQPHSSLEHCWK

Row | Compound | pKi
1 | Cc1cc(C(=O)NC2CCCCC2)n(-c2ccc(OCC3CCCN4CCCCC34)cc2)n1 (centres unmarked) [Example 82, 5-Methyl-2-[4-(octahydroquinolizin-1-ylmethoxy)phenyl]-2H-pyrazole-3-carboxylic acid cyclohexylamide] | < 5.00
2 | Cc1cc(C(=O)NC2CCCCC2)nn1-c1ccc(OCCCN2CCCC2)cc1 [Example 83, 5-Methyl-1-[4-(3-pyrrolidin-1-ylpropoxy)phenyl]-1H-pyrazole-3-carboxylic acid cyclohexylamide] | > 8.00
